Measurements published in US5731155A, “Compositions for inhibition of intracellular transcription factors and methods therefor” (Washington University, priority 1996, dated 1998).
“Also recorded” adds a separate entry of the source. Where a SMILES comes first, the peptide text is derived from it. [ ]: non-standard residue; d: D form. The star is where a group is joined. Biotin = O=C1N[C@H]2[C@H](CS[C@H]2CCCCC(=O)*)N1; pY = N[C@@H](Cc1ccc(OP(=O)(O)O)cc1)C(=O)O; Ahx = NCCCCCC(=O)O

What was measured:
STAT3 [1] = biological target: T1, STAT3 (Mus musculus, UniProt P42227); assay: Precipitation of STAT3 from BaMR cytosolic homogenates with biotinylated IL-10 receptor peptides; format: binding; conditions: for precipitation of / binding to the 92 kD STAT3 protein: biotinylated 12 amino acid peptides, BaMR cytosolic homogenates; for concentration of biotinylated peptide sufficient to precipitate STAT3 (comparable amounts): increasing peptide concentrations, data not shown
T1 construct: Cytosolic homogenates of BaMR cells were precipitated with the biotinylated 12 amino acid peptides; endogenous in cells; host or cells: BaMR (BaF3 pre-B cells transfected with the IL-10 receptor) homogenates
Description: Aminoterminally biotinylated peptides were synthesized comprising 12 amino acids in which the peptides each contained a different region of the IL-10 receptor intracellular domain containing a tyrosine residue. These peptides corresponded to positions 370 to 381 (SEQ ID NO:26, Gln-Gln-Leu-Gly-Xaa-His-Gln-Asp-Gln-Asp-Asp-Ser), 392-403 (SEQ ID NO:27, Gly-Gln-Pro-Lys-Xaa-Thr-Gln-Asp-Ala-Ser-Asp-Leu), 423 to 434 (SEQ ID NO:24, Thr-Phe-Gln-Gly-Xaa-Gln-Lys-Gln-Thr-Arg-Trp-Lys) and 473 to 484 (SEQ ID NO:25, Leu-Ala-Ala-Gly-Xaa-Leu-Lys-Gln-Glu-Ser-Gln-Gly) in which the amino acids identified in the sequence as Xaa in positions 374, 396, 427, and 477 of the respectively peptides are phosphorylated tyrosines. In addition, the sequences 423 to 434 (SEQ ID NO:28, Thr-Phe-Gln-Gly-Tyr-Gln-Lys-Gln-Thr-Arg-Trp-Lys) and 473 to 484 (SEQ ID NO:29, Leu-Ala-Ala-Gly-Tyr-Leu-Lys-Gln-Glu-Ser-Gln-Gly) contained the non-phosphorylated tyrosines in the positions 427, and 477 of the IL-10 receptor intracellular domain. Cytosolic homogenates of BaMR cells were precipitated with the biotinylated 12 amino acid peptides. […] In contrast to this, no binding to the STAT3 transcription factor occurred with the peptides containing phosphorylated tyrosines in positions 374 (SEQ ID NO:26) and 396 (SEQ ID NO:27), the peptides containing non-phosphorylated tyrosines in positions 427 (SEQ ID NO:28) and 477 (SEQ ID NO:29) and the phosphorylated peptide corresponding to the amino acid sequences 436 to 447 of the IFNγ receptor α chain intracellular domain (FIG. 10). Whereas both the 427 and the 477 phosphopeptides precipitated the STAT3 transcription factor, none of the phosphopeptides coprecipitated STAT1.

STAT3 [2] = biological target: T1, STAT3; assay: Inhibition of IL-10 dependent STAT3 phosphorylation in BaMR cell homogenates; format: biochemical; conditions: for effect on IL-10 dependent phosphorylation of STAT3: peptide 100 μM, 45 minutes at 4° C., then 100 ng/ml IL-10
Protocol: BaMR cell homogenates were prepared in a Dounce homogenizer and 18 μg of total protein was incubated without or with IL-10 at a concentration of 100 ng/ml for 15 minutes at 37° C. (FIG. 11, lanes 1 and 2). In lanes 3-8, 18 μg total protein of the BaMR homogenates was incubated for 45 minutes at 4° C. with a 100 μM concentration of the IL-10-receptor peptides having phosphorylated tyrosines at positions 374 (SEQ ID NO:26), 396 (SEQ ID NO:27), 427(SEQ ID NO:24), and 477(SEQ ID NO:25) (lanes 3-6) or 100 μM concentration of the non phosphorylated peptides having tyrosines at positions 427 (SEQ ID NO:28) and 477 (SEQ ID NO:29). Reaction mixtures were stimulated with 100 ng/ml IL-10 as described above and homogenates were precipitated with STAT3 or STAT1 specific antisera. Precipitates were blotted with phosphotyrosine specific antibody RC-20 and reactions developed using the ECL-system. Blots were stripped and reblotted with STAT3 and STAT1 specific antisera, respectively.

IFNγ receptor α chain = assay: IFNγ dependent tyrosine phosphorylation of the IFNγ receptor α chain in Colo-205 cells (4G10 western blot); format: cell-based, human; conditions: Colo-205 treated for 5 minutes
Description: For these experiments, Colo-205, a human adenocarcinoma cell line obtained from the ATCC, was used because it was known to express a high number of IFNγ receptors (10,000 receptors/cell) and has been well characterized with regard to both biologic responsiveness to IFNγ and IFNγ receptor […] phosphorylation (Hershey and Schreiber, 1989; Hershey et al., 1990 both of which are incorporated by reference). Colo-205 cells (5-10×10^7) were resuspended in one ml of PBS-10% FCS and were then incubated at 37° C., either in the presence or absence of rHuIFNγ (10,000 IRU). Purified recombinant human IFNγ was provided by Dr. Susan Kramer of Genentech, Inc. (South San Francisco, Calif.). […] Purified rHuIFNγ was radioiodinated, using Bolton Hunter reagent (ICN Chemicals, Radioisotope Division, Irvine, Calif.) to specific activities of 6.5-17.8 μCi/μg as described in Celada et al. (J Clin Invest 76:2196-2205, 1985 which is incorporated by reference). The reaction was stopped by adding 4 mls of ice-cold PBS. Cells were pelleted, washed once in ice-cold PBS, and then lysed in one ml of lysis buffer (25 mM Tris-HCl (pH 8.0), 1% NP-40, 150 mM NaCl, 1 mM sodium orthovanadate, 10 mM NaF, 1 mM PMSF, 5mM iodoacetamide, […] leupeptin and aprotinin). Solubilized cells were centrifuged at 15,000×g to remove cell nuclei and the supernatants were then incubated with 10 μg of GIR-94 for 30 minutes at 4° C. Protein G sepharose was added to the reaction mixture and the incubation continued for an additional 30 minutes. […]
To determine the amount of receptor precipitated at each time point, aliquots from each immunoprecipitate were subjected to western blot analysis using a monoclonal antibody (GIR-94, a murine antibody IgG2b) that is specific for the human IFNγ receptor extracellular domain. In the absence of added IFNγ, no tyrosine phosphorylated receptor was detected (FIG. 1, lane 1). […]

T1 sequence (P42227 whole entry): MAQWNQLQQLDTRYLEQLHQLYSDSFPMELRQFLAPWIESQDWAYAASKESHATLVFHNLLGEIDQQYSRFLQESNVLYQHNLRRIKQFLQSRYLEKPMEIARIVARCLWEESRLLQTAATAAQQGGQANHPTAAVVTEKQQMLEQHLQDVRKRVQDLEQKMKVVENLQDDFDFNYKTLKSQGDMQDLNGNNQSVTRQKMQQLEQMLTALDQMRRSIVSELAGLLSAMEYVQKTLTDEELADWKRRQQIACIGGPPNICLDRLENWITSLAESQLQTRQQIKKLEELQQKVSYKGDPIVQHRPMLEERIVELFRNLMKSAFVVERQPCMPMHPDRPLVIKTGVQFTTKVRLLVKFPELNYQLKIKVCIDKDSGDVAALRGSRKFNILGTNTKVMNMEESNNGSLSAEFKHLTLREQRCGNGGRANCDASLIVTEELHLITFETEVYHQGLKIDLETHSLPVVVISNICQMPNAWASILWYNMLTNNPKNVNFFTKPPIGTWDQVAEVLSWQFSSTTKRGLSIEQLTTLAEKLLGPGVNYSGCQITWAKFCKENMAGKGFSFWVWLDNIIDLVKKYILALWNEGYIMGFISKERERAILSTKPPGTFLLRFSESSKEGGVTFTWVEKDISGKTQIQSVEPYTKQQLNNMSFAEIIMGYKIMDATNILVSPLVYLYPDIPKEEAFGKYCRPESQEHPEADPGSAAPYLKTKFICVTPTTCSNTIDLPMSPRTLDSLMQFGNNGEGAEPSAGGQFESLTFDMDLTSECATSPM

precipitation of / binding to the 92 kD STAT3 protein (STAT3 [1]) | Compound | further results
no binding | CC(C)C[C@H](NC(=O)[C@H](CCC(N)=O)NC(=O)[C@H](CCC(N)=O)NC(=O)CCCCCNC(=O)CCCC[C@@H]1SC[C@@H]2NC(=O)N[C@@H]21)C(=O)NCC(=O)N[C@@H](Cc1ccc(OP(=O)(O)O)cc1)C(=O)N[C@@H](Cc1c[nH]cn1)C(=O)N[C@@H](CCC(N)=O)C(=O)N[C@@H](CC(=O)O)C(=O)N[C@@H](CCC(N)=O)C(=O)N[C@@H](CC(=O)O)C(=O)N[C@@H](CC(=O)O)C(=O)N[C@@H](CO)C(=O)O [SEQ ID NO:26, Gln-Gln-Leu-Gly-Xaa-His-Gln-Asp-Gln-Asp-Asp-Ser] ({Biotin-Ahx}-QQLG[pY]HQDQDDS-OH) | 
no binding | CC(C)C[C@H](NC(=O)[C@H](CC(=O)O)NC(=O)[C@H](CO)NC(=O)[C@H](C)NC(=O)[C@H](CC(=O)O)NC(=O)[C@H](CCC(N)=O)NC(=O)[C@@H](NC(=O)[C@H](Cc1ccc(OP(=O)(O)O)cc1)NC(=O)[C@H](CCCCN)NC(=O)[C@@H]1CCCN1C(=O)[C@H](CCC(N)=O)NC(=O)CNC(=O)CCCCCNC(=O)CCCC[C@@H]1SC[C@@H]2NC(=O)N[C@@H]21)[C@@H](C)O)C(=O)O [SEQ ID NO:27, Gly-Gln-Pro-Lys-Xaa-Thr-Gln-Asp-Ala-Ser-Asp-Leu] ({Biotin-Ahx}-GQPK[pY]TQDASDL-OH) | 
no binding | C[C@@H](O)[C@H](NC(=O)CCCCCNC(=O)CCCC[C@@H]1SC[C@@H]2NC(=O)N[C@@H]21)C(=O)N[C@@H](Cc1ccccc1)C(=O)N[C@@H](CCC(N)=O)C(=O)NCC(=O)N[C@@H](Cc1ccc(O)cc1)C(=O)N[C@@H](CCC(N)=O)C(=O)N[C@@H](CCCCN)C(=O)N[C@@H](CCC(N)=O)C(=O)N[C@H](C(=O)N[C@@H](CCCNC(=N)N)C(=O)N[C@@H](Cc1c[nH]c2ccccc12)C(=O)N[C@@H](CCCCN)C(=O)O)[C@@H](C)O [SEQ ID NO:28, Thr-Phe-Gln-Gly-Tyr-Gln-Lys-Gln-Thr-Arg-Trp-Lys] ({Biotin-Ahx}-TFQGYQKQTRWK-OH) | 
no binding | CC(C)C[C@H](NC(=O)CCCCCNC(=O)CCCC[C@@H]1SC[C@@H]2NC(=O)N[C@@H]21)C(=O)N[C@@H](C)C(=O)N[C@@H](C)C(=O)NCC(=O)N[C@@H](Cc1ccc(O)cc1)C(=O)N[C@@H](CC(C)C)C(=O)N[C@@H](CCCCN)C(=O)N[C@@H](CCC(N)=O)C(=O)N[C@@H](CCC(=O)O)C(=O)N[C@@H](CO)C(=O)N[C@@H](CCC(N)=O)C(=O)NCC(=O)O [SEQ ID NO:29, Leu-Ala-Ala-Gly-Tyr-Leu-Lys-Gln-Glu-Ser-Gln-Gly] ({Biotin-Ahx}-LAAGYLKQESQG-OH) | 
 | rHuIFNγ: Purified recombinant human IFNγ provided by Genentech, Inc. | IFNγ dose at which IFNγ receptor tyrosine phosphorylation reached maximal levels (IFNγ receptor α chain): 10,000 IRU/ml; IFNγ dose at which IFNγ receptor tyrosine phosphorylation was detected (IFNγ receptor α chain): 100 IRU/ml

Compound | precipitation of / binding to the 92 kD STAT3 protein (STAT3 [1]) | further results
CC(C)C[C@H](NC(=O)[C@@H](NC(=O)[C@H](Cc1c[nH]cn1)NC(=O)[C@@H]1CCCN1C(=O)[C@H](CCCCN)NC(=O)[C@H](CC(=O)O)NC(=O)[C@H](Cc1ccc(OP(=O)(O)O)cc1)NC(=O)CNC(=O)[C@H](Cc1ccccc1)NC(=O)[C@H](CO)NC(=O)[C@@H](NC(=O)CCCCCNC(=O)CCCC[C@@H]1SC[C@@H]2NC(=O)N[C@@H]21)[C@@H](C)O)C(C)C)C(=O)N[C@H](C(=O)O)C(C)C [SEQ ID NO:4, Biotin-TSFGY-PO4 DKPHVLV] ({Biotin-Ahx}-TSFG[pY]DKPHVLV-OH) | no binding | 
Leu-Ala-Ala-Gly-Xaa-Leu-Lys-Gln-Glu-Ser-Gln-Gly [SEQ ID NO:25] | specifically precipitated; also recorded: coprecipitated | effect on IL-10 dependent phosphorylation of STAT3 (STAT3 [2]): specifically inhibited; concentration of biotinylated peptide sufficient to precipitate STAT3 (comparable amounts) (STAT3 [1]): 4 to 20 µM
Thr-Phe-Gln-Gly-Xaa-Gln-Lys-Gln-Thr-Arg-Trp-Lys [SEQ ID NO:24] | specifically precipitated; also recorded: coprecipitated | potency in inhibiting STAT3 phosphorylation relative to SEQ ID NO:25 (STAT3 [2]; concentration-dependent inhibition, FIG. 12): 5 to 10 fold; effect on IL-10 dependent phosphorylation of STAT3 (STAT3 [2]): specifically inhibited; concentration of biotinylated peptide sufficient to precipitate STAT3 (comparable amounts) (STAT3 [1]): 0.8 µM
